Structures are written as SMILES.

One experiment has as its system primary chondrocytes. Briefly: Chondrocyte micromass differentiation, Alcian blue staining. To be noted: chondrogenic media, 7 days. The format is cell-based, mouse. How it is done:
ATDC5 cell line was purchased from Riken BioResource Center (Tsukuba, Japan) and grown in a 1:1 mixture of DMEM/F12 medium (Corning, 10-092-CVR) supplemented with 5% fetal bovine serum (Gibco, 10099, USA) and 1% penicillin-streptomycin solution (Life Technologies). Cells were maintained at 37 °C under 5% CO2. Primary chondrocytes were obtained from knee joint cartilage of newborn mice. Knee joints were dissected from the tibia plateau and femoral condyle articular cartilage of mouse pups and digested in 0.1% collagenase type II (Sigma) overnight at 37 °C and chondrocytes were harvested by centrifugation. Primary chondrocytes were cultured at a density of 5 × 10^3 cells per ml at 37 °C with 5% CO2. DMEM/F12 medium with 10% fetal bovine serum (FBS) and 1% penicillin–streptomycin was used to culture the primary chondrocytes. […]
Micromass cultures were rinsed with PBS, fixed in PFA for 10 min, and then incubated with Alcian blue staining solution (1.0% Alcian blue in 0.1 N HCl) overnight at 4 °C. […] Alcian blue-stained cultures were extracted using 6 M guanidine hydrochloride and absorbance was measured at 620 nm.

Experiment [1] relates to cAMP in primary chondrocytes. Nature of the experiment: cAMP assay. The settings on record: primary mouse chondrocytes, 2 h. The format is cell-based. How it is done: The cAMP concentration of primary chondrocytes was detected by cAMP dynamic kit (Cisbio, France) following the manufacturer’s instructions. cAMP standards were diluted according to the kit instructions. Cells were treated with HL-43 for 2 h and the relative fold change of cAMP was determined by comparing with the cAMP standard curve.
Background: Cyclic AMP is a second messenger, typically raised through Gs and lowered through Gi signalling.

With `C[C@H](NC(=O)c1c(-c2ccccc2)nnn1CCOc1ccc(F)cc1)c1ccc(C(=O)O)cc1` [HL-43], the “Chondrogenesis of primary chondrocytes (Alcian blue)” value in the experiment with primary chondrocytes is listed as “promoted the chondrogenesis of the primary chondrocytes in a dose-dependent manner”. Also, the cAMP production entry in experiment [1] is recorded as “dose-dependently induced cAMP production”.

The values above are taken from article PMC8901748, “A novel prostaglandin E receptor 4 (EP4) small molecule antagonist induces articular cartilage regeneration” (Cell Discovery, 2022).
